In data set [1] the test system is phenylquinone induced writhing. The data set is described as follows: phenylquinone induced writhing test (Siegmund). To be noted: Mus musculus; approximate ED25; printed 'in the rat', after oral administration; read-out: analgesic activity ED25, phenylquinone-induced writhing test. Format: in vivo, mice. An excerpt:
(§1) A. Winter et al. (J. Pharmac. Exp. Therap. 1963, 141, 369) and P. Lence (Arch. Int. Pharmacodyn., 1962, 136, 237), and (B) the Reversed Passive Arthus Reaction (RPAR) in rat paw, induced by the interaction of antigen and antibody resulting in the formation of precipitating immune complex, followed by fixation of complement and accumulation of polymorphonuclear leucocytes at a focal point (D. K. GEMMELL, J. COTTNEY and A. J. LEWIS, Agents and Actions 9/1 pag. 107, 1979). The compounds of this invention are also endowed with analgesic activity. The analgesic activity was assessed, for example, by means of phenylquinone induced writhing test in mice according to Siegmund [Siegmund et al. Proc. Soc. Exper. Biol. Med., 95, 729 (1957)].
With regard to the analgesic activity, one of the preferred compounds of this invention is, for example, the compound 2-chloro-7-trans-[2-(3-pyridyl)-ethenyl]-5H-thiazolo[3,2-a]pyrimidine-5-one, wich has an approximate ED25 value of 25 mg/kg in the phenylquinone-induced writhing test in the rat, after oral administration. Furthermore the compounds of this invention are effective in the inhibiting the TXA2 synthetase in vivo and may be therefore useful in therapy, for example, in the prevention and treatment of all kinds of thrombosis, peripheral vasculopaties and coronary artery diseases.
(In general: In writhing tests, fewer writhes than in controls are read as antinociception.)

In data set [2] the test system is carrageenin induced oedema. The data set is described as follows: carrageenin induced oedema in the hind paw of rats. The note with it: approximate ED25; rat, oral administration; read-out: Anti-inflammatory activity Carrageenin induced oedema ED25. The class given is in vivo.
From the text: as §1
(§2) Therefore the compounds of the invention may be used in therapy to treat pains and inflammatory processes, such as for example, rheumatoid arthritis and osteoarthrosis. The following Tables II and III show, for example, the approximate ED25 values of the anti-inflammatory activity in the above tests in the rat after oral administration for some compounds of this invention: […]

Data set [3] deals with Reversed Passive Arthus Reaction (RPAR). The data set is described as follows: Reversed Passive Arthus Reaction (RPAR) in rat paw. Format: in vivo. The note with it: approximate ED25, oral administration, read-out: Anti-inflammatory activity RPAR reaction ED25.
From the text: as §1, §2

Data set [4] is described as follows: acute toxicity (LD50) in the mouse. To be noted: in vivo, po, per os, single administration of increasing doses, measured on the seventh day, read-out: approximate acute toxicity (LD50). The method, then:
In view of their high therapeutic index, the compounds of the invention can be used safely in medicine. For example, the approximate acute toxicity (LD50) of the compounds 7-trans-[2-(3-pyridyl)-ethenyl]-5H-thiazolo[3,2-a]pyrimidine-5-one and 2-chloro-7-trans-[2-(3-pyridyl)-ethenyl]-5H-thiazolo[3,2-a]pyrimidine-5-one in the mouse determined by single administration of increasing doses and measured on the seventh day of treatment, is higher than 800 mg/kg per os. Analogous toxicity data have been found for other compounds of the invention.

Data set [5] relates to restraint ulcers in rats. The data set is described as follows: inhibition of restraint ulcers in rats (Bonfils method). Format: in vivo. To be noted: po; approximate ED50; rat, per os one hour before immobilization, lesions counted 4 hours after immobilization; read-out: Antiulcerogenic activity p.o. ED50. From the text: The compounds of the present invention are active on the gastroenteric system, in particular they are endowed with anti-ulcerogenic and gastric anti-secretory activity and are therefore useful in therapy, for example in the prevention and treatment of peptic, e.g. duodenal, gastric and esophageal, ulcers and to inhibit gastric acid secretion. The compounds of the invention are also useful for reducing the undesiderable gastrointestinal side-effects resulting from systemic administration of anti-inflammatory prostaglandin synthetase inhibitors and may be, therefore, used for this purpose in association with them. The anti-ulcerogenic activity of the compounds of the invention is shown, e.g., by the fact that they are active in the test of the inhibition of restraint ulcers in rats, according to the method of Bonfils et al., (Therapie, 1960, 5, 1096; Jap. J. Pharmac. 1945, 43, 5). Six Sprague-Dawley male rats (100-120 g) fasted 24 hours were used for the experiment: a square flexible small-mesh wire netting was used for the immobilization and 4 hours after the immobilization the rats were sacrificed, their stomachs were removed and the lesions counted under a dissecting microscope. The tested compounds were administered per os (p.o.) one hour before the immobilization.

For data set [6], the system named is gastric secretion in rats. The data set is described as follows: gastric antisecretory activity, pylorus ligature technique (Shay method). To be noted: approximate ED50; rat, intraduodenal administration at the time of ligature, 4 hours. Format: in vivo. Here is the method:
Gastric antisecretory activity was evaluated in rats by the pylorus ligature technique. Six Sprague-Dawley male rats (110-130 g) were used for each group. Twenty-four hours before the test, the rats were deprived of food but their water supply was maintained. On the day of the operation, the pylorus was ligated under light ether anaesthesia. Each compound was injected intraduodenally (i.d.) at the time of the ligature. Four hours after the ligature the rats were sacrificed, the stomach secretion was collected and centrifuged at 3500 r.p.m. for 10 minutes, and the volume, less sediment, was determined.
The amount of the free hydrochloric acid in the gastric juice was determined by titration against 0.01 N sodium hydroxide to pH 7.0.

Data set [7] has as its target T1, TXA2 synthetase (Rattus norvegicus, UniProt P49430).
T1 construct: determining the concentration of TXB2 in the serum of the animals killed two hours after the administration of the drug; from tissue; host or cells: living rat, serum sampled after oral dosing (endogenous enzyme)
T1 sequence (P49430 1-533): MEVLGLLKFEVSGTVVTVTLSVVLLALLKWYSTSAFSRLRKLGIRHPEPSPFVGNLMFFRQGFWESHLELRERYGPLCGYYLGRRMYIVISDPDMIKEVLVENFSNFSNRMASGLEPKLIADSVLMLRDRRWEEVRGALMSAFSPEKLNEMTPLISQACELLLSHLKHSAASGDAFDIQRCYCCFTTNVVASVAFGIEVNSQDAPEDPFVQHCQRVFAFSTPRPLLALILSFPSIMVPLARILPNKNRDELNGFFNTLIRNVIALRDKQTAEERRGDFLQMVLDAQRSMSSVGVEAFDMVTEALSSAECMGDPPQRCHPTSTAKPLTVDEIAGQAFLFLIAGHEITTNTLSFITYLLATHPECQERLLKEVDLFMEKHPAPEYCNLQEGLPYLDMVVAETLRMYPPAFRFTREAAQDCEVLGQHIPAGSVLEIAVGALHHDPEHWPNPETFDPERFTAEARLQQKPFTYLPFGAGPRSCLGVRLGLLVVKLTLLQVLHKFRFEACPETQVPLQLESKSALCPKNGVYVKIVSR
The data set is described as follows: TXA2 synthetase inhibition in vivo, TXB2 concentration in serum. To be noted: single oral dose of 10 mg/kg, TXB2 in serum two hours after administration. The method, then: The activity on the TXA2 synthetase was evaluated, e.g., in rat by administering the compounds at a single oral dose of 10 mg/kg and determining the concentration of TXB2 in the serum of the animals killed two hours after the administration of the drug.

Experimental findings from patent US4444773A, “Substituted thiazolo[3,2-a]pyrimidines and process for their preparation” (Farmitalia Carlo Erba S.p.A., priority 1981, dated 1984) are described below.

As to `O=c1cc(/C=C/c2cccnc2)nc2sc(Cl)cn12` [2-chloro-7-trans-[2-(3-pyridyl)-ethenyl]-5H-thiazolo[3,2-a]pyrimidine-5-one], the results for the ED25 in data set [1], in data set [2] and in data set [3] were roughly 25 mg/kg, 16 mg/kg and 25 mg/kg, respectively. For the same compound, in data set [4], the LD50 (as a rule, the dose at which mortality reaches 50%) at 168 h was greater than 800 mg/kg. Moreover, the ED50 – broadly, the dose at which the effect has come halfway, by size or by number of responders – in data set [5] came out at 10 mg/kg.
In the case of `COc1c(/C=C/c2cccnc2)nc2sccn2c1=O` [6-methoxy-7-trans-[2-(3-pyridyl)-ethenyl]-5H-thiazolo[3,2-a]pyrimidine-5-one], the ED25 in data set [2] worked out at 15 mg/kg. Besides, the ED50 in data set [6] was roughly 30 mg/kg.
For `Cc1c(/C=C/c2cccnc2)nc2sccn2c1=O` [6-methyl-7-trans-[2-(3-pyridyl)-ethenyl]-5H-thiazolo[3,2-a]pyrimidine-5-one], the “TXA2 synthetase inhibiting activity” value in data set [7] was “having TXA2 synthetase inhibiting activity”.
`O=c1cc(/C=C/c2cccnc2)nc2sccn12` [7-trans-[2-(3-pyridyl)-ethenyl]-5H-thiazolo[3,2-a]pyrimidine-5-one]: the ED25 in data set [2] amounted to 6 mg/kg. In data set [4], the LD50 at 168 h is greater than 800 mg/kg. Also, the ED50 in data set [5] was determined as 9 mg/kg.
